In patent publication US20060009403A1, “Dna demethylase antisense and chemotherapy combination” (Centre National De La Recherche Scientifique (CNRS), priority 2002, published 2006):

Tested on: H1299 tumor grafts (human non-small cell lung tumors)
Assay: Growth of H1299 tumor grafts in nude mice after intratumor electrotransfer of antisense plasmid and/or intramuscular bleomycin (Experiments 1 and 2)
Format: in vivo
Conditions: for Number of tumors cured (tumors no longer measurable): cured/total
Experimental: Two series of experiments were carried out in nude mice weighing 18 to 20 g. The mice were implanted on one side with H1299 tumor grafts (human non-small cell lung tumors) of approximately 20 mm^3. The tumors developed, to reach a volume of 20 to 150 mm^3. The mice were sorted as a function of the size of the tumors and were divided up into homogeneous batches reaching tumor volumes of 50 to 80 mm^3 (n=10 to 13). The mice were anesthetized with a mixture of ketamine and xylazine.
A series of tumors was subjected to no treatment.
Five electrotransfers of 50 μg of plasmid in 80 μl of 150 mM NaCl were carried out in the tumors on the days indicated by the arrows. The plasmid solution was injected longitudinally at the periphery of the tumor using a Hamilton syringe. The lateral faces of the tumors were coated with conducting gel and the tumors were placed between 2 flat stainless steel electrodes 0.4 to 0.7 cm apart. Twenty to 30 seconds after the injection, the plasmids were electrotransferred using a commercial (square) electrical pulse generator (Jouan Electropulser PS 15). Each tumor was subjected to 500 V/cm delivered in 8 pulses lasting 20 msec at a frequency of 1 Hertz.
Twenty-five μg of bleomycin/animal in 50 μl of 150 mM NaCl were injected bilaterally into the tibialis cranialis muscle and, 30 minutes later, each tumor was subjected to 1 electrotransfer as explained above.
(§1) Twenty-five μg of bleomycin/animal in 50 μl of 150 mM NaCl were injected bilaterally into the tibialis cranialis muscle and, 30 minutes later, 50 μg of antisense plasmid in 80 μl of 150 mM NaCl were injected and electrotransferred. Four other electrotransfers of 50 μg of antisense plasmid in 80 μl of 150 mM NaCl were subsequently carried out in the tumors on the days indicated by the arrows.
The tumor volumes were measured individually for each tumor using an electronic slide gauge with a digital display, according to the formula (length×width×thickness)/2.
The median of the tumor volumes was reported in the form of a graph, as a function of time.
Five electrotransfers of 80 μl of 150 mM NaCl were carried out in the tumors on the days indicated by the arrows.
as §1, with “Fifty” for “Twenty-five μg of bleomycin/animal in 50”, “later, an electrotransfer of” for “later,”, “was carried out.” for “were injected and electrotransferred.”
Twenty-five μg of bleomycin/animal in 50 μl of 150 mM NaCl were injected bilaterally into the tibialis cranialis muscle and, 30 minutes later, each tumor was injected with 80 μl of 150 mM NaCl and subjected to an electrotransfer. Four other electrotransfers of 80 μl of 150 mM NaCl were subsequently carried out in the tumors on the days indicated by the arrows.
as §1, with “50-μl” for “50 μl”, “in” for “into”, “later, an electrotransfer of” for “later,”, “was carried out.” for “were injected and electrotransferred.”

bleomycin
Delay in growth, treatment versus untreated (Experiment 1): 30 days | D1000, number of days required to reach a tumor volume of 1000 mm^3 (Experiment 1 (Table 3)): D44 days | Day 1000 mm^3 (median), number of days to reach 1000 mm^3 of tumor volume (Experiment 1, H1299 tumors, 25 μg bleomycin i.m. and/or 5 electrotransfers of 50 μg plasmid): 44.40 days | Number of tumors cured (tumors no longer measurable) (Experiment 1): 1/13 | Delay in growth, treatment versus electro/NaCl (Experiment 2): 17 days | D1000, number of days required to reach a tumor volume of 1000 mm^3 (Experiment 2 (Table 3)): D38 days | D 1000 mm^3 (median), number of days to reach 1000 mm^3 of tumor volume (Experiment 2, H1299 tumors, 25 μg bleomycin i.m. and/or 5 electrotransfers of 50 μg plasmid): 38.00 days | Number of tumors cured (tumors no longer measurable) (Experiment 2): 1/11 | Tumor (complete) cure rate (H1299 tumors, summary over Experiments 1 and 2): 10%
